Test results reported in publication PMC5691139, “Structural and functional studies of SAV0551 from Staphylococcus aureus as a chaperone and glyoxalase III” (Bioscience Reports, 2017).

Experiments:
SAV0551 [1] = biological target: T1, SAV0551 (Staphylococcus aureus, UniProt P64312); experiment: 1D 1H NMR; format: biochemical; settings: 60 mM methylglyoxal, 50 µM enzyme, 20 mM HEPES pH 7.5, 50 mM KCl, 2 mM DTT, 37°C
T1 construct: gene hchA; monomer ~32 kDa, dimer ~64 kDa
T1 sequence (P64312 1-292): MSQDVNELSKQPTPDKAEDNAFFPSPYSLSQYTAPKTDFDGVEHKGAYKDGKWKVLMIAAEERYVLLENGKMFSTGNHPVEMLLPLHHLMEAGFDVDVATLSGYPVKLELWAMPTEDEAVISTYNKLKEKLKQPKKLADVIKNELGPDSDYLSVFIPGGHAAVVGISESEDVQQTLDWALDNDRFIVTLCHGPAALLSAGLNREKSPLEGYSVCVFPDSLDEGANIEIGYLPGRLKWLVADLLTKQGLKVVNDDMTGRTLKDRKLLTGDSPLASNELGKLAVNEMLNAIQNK

SAV0551 [2] = biological target: T1, SAV0551; experiment: X-ray crystal structure of the complex, […] Å; format: binding; settings: co-crystal with 50 mM glyoxylate, 30% PEG3350, 100 mM BisTris pH 6.5, 293 K; active site at Cys190; additional glyoxylate in aspartate-rich cleft between non-dimer chains
SAV0551 [3] = biological target: T1, SAV0551; experiment: 1D 1H NMR and DNPH absorbance ([…] nm) of remaining methylglyoxal; format: biochemical; settings: no cofactor; 20 mM HEPES pH 7.5, 50 mM KCl, 2 mM DTT, 37°C; 60 mM (NMR) or 6 mM substrate; 50 or 10 µM enzyme
[4] = biological target: the molecule itself; experiment: SEC; size-exclusion chromatography in solution; conditions not told for this result (the purification used Superdex 75 10/300 GL in 50 mM Tris pH 7.5, 0.15 M NaCl)

In the case of `C[C@@H](O)C(=O)O` [D-lactate], the “1D 1H NMR” value (SAV0551 [1]) is reported as “new peaks that correspond to the D-lactate produced by SAV0551”.

For `O=CC(=O)O` [glyoxylate], the “X-ray crystal structure of the complex, 3.01 Å” value (SAV0551 [2]) was 5XR3 for SAV0551 with glyoxylate.

In the case of `CC(=O)C=O` [methylglyoxal], the “1D 1H NMR and DNPH absorbance (550 nm) of remaining methylglyoxal” value (SAV0551 [3]) is reported as “methylglyoxal can be used as a substrate for SAV0551 to produce D-lactate”.

B1: SAV0551 from Staphylococcus aureus Mu50 (natural protein, UniProt P64312 1-292, looked up)
chain: T1 sequence (P64312 1-292)
notes: SAV0551, Hsp-type DJ-1/ThiJ/PfpI superfamily protein (Hsp31 homologue, glyoxalase III) of Staphylococcus aureus Mu50 (ATCC 700699); predicted ORF amplified from genomic DNA into pET-21a(+) NdeI/XhoI; monomer ~32 kDa; also called wild-type SAV0551; native SAV0551; source: E. coli BL21(DE3), purified (Ni-NTA, Superdex 75)
B1 was tested, and the “stoichiometry N” value [4] was 2.
